Measured values taken from publication PMC10630452, “The tumor-enriched small molecule gambogic amide suppresses glioma by targeting WDR1-dependent cytoskeleton remodeling” (Signal Transduction and Targeted Therapy, 2023).

Columns and labels:
PDCs and GSCs = experiment: Transwell cell invasion assay; assay type: cell-based; settings: 0.1 μM and 0.3 μM, 48–72 h
Protocol: First, cells were starved for 12 h. The top surface of the membrane in the upper transwell chamber was coated with Matrigel (dilution ratio, 1:100, Corning, USA) by incubation for 30 min. Cells were plated in the upper chamber with serum-free neurobasal medium containing the corresponding concentration of GA-amide, and 600 μL of neurobasal medium containing 10% FBS and the same concentration of GA-amide was added to the lower chamber for 24–72 h of culture. Next, the cells in the transwell chamber were fixed with 4% paraformaldehyde for 20 min. After noninvaded cells in the upper chamber were removed by wiping, the remaining cells were stained with 1% crystal violet staining solution for 20 min and washed with double-distilled water. Finally, cell invasion was evaluated by microscopy.

[1] = tested on: WDR1 deficient U87MG-SLC cells; experiment: sgWDR1 U87MG-SLC subcutaneous xenograft; assay type: in vivo, nude mice; settings: 2 mg/kg i.p. once daily for 10 days
[2] = Acute toxicity assay, blood routine examination; assay type: in vivo, mice; settings: for #Retic (Reticulocyte) / CH (corpuscular hemoglobin) / CHCM (Cellular Hemoglobin Concentration Mean) / CHDW (Cell hemoglobin distribution width) / HCT (Hematocrit) / HDW (Hemoglobin Distribution Width) / HGB (Hemoglobin) / MCH (Mean Corpuscular Hemoglobin) / MCHC (Mean corpuscular hemoglobin concentration) / MCV (Mean Corpuscular Volume) / MPV (Mean platelet volume) / PCT (Plateletocrit) / PDW (Platelet distribution width) / PLT (Platelet) / RBC (Red Blood Cell) / RDW (red blood cell volume distribution width) / WBC (White Blood Cell): mice

For CC(C)=CCC[C@]1(C)C=Cc2c(O)c3c(c(CC=C(C)C)c2O1)O[C@]12C(=C[C@@H]4CC1C(C)(C)O[C@@]2(C/C=C(/C)C(N)=O)C4=O)C3=O [GA-amide, gambogic amide], the “number of invading cells (transwell)” value (PDCs and GSCs) was “significant decrease in the number of invading PDCs and GSCs”, the “tumor growth of WDR1 deficient xenograft” value [1] was “could not inhibit the tumor growth” and the “routine blood parameters and serum biochemical analytes versus control” value ([2]; 1 mg/kg and 10 mg/kg, one-time i.v., ALT and Cl fluctuated) was “no significant differences in routine blood parameters and most analytes evaluated in biochemical analysis of mouse serum”. The “#Retic (Reticulocyte)” value ([2]; 1mg/kg one-time i.v.) was 335.1±72.9 ×109cells/L, the “CH (corpuscular hemoglobin)” value ([2]; 1mg/kg one-time i.v.) was 16.8 ± 0.5 pg and the “CHCM (Cellular Hemoglobin Concentration Mean)” value ([2]; 1mg/kg one-time i.v.) was 35.7 ± 0.8 g/dL. For the same compound, the “CHDW (Cell hemoglobin distribution width)” value ([2]; 1mg/kg one-time i.v.) was 3.00±0.39%, the “HCT (Hematocrit)” value ([2]; 1mg/kg one-time i.v.) was 42.8±7.5% and the “HDW (Hemoglobin Distribution Width)” value ([2]; 1mg/kg one-time i.v.) was 2.66 ± 0.20 g/dL. For the same compound, the “HGB (Hemoglobin)” value ([2]; 1mg/kg one-time i.v.) was 13.0 ± 0.7 g/dL, the “MCH (Mean Corpuscular Hemoglobin)” value ([2]; 1mg/kg one-time i.v.) was 14.5 ± 1.7 pg and the “MCHC (Mean corpuscular hemoglobin concentration)” value ([2]; 1mg/kg one-time i.v.) was 31.0 ± 3.9 g/dL. The “MCV (Mean Corpuscular Volume)” value ([2]; 1mg/kg one-time i.v.) was 47.0 ± 1.8 fL, the “MPV (Mean platelet volume)” value ([2]; 1mg/kg one-time i.v.) was 8.3 ± 0.3 fL and the “PCT (Plateletocrit)” value ([2]; 1mg/kg one-time i.v.) was 1.33±0.30%. For the same compound, the “PDW (Platelet distribution width)” value ([2]; 1mg/kg one-time i.v.) was 48.8±2.5%, the “PLT (Platelet)” value ([2]; 1mg/kg one-time i.v.) was 1603±310 ×103cells/μL and the “RBC (Red Blood Cell)” value ([2]; 1mg/kg one-time i.v.) was 9.09±1.40 ×106cells/μL. For the same compound, the “RDW (red blood cell volume distribution width)” value ([2]; 1mg/kg one-time i.v.) was 16.5±1.2%, the “WBC (White Blood Cell)” value ([2]; 1mg/kg one-time i.v.) was 4.78±1.34 ×103cells/μL and the “#Retic (Reticulocyte)” value ([2]; 10mg/kg one-time i.v.) was 836.7±674.4 ×109cells/L. The “CH (corpuscular hemoglobin)” value ([2]; 10mg/kg one-time i.v.) was 17.0 ± 0.5 pg, the “CHCM (Cellular Hemoglobin Concentration Mean)” value ([2]; 10mg/kg one-time i.v.) was 35.4 ± 1.3 g/dL and the “CHDW (Cell hemoglobin distribution width)” value ([2]; 10mg/kg one-time i.v.) was 3.15±0.11%. For the same compound, the “HCT (Hematocrit)” value ([2]; 10mg/kg one-time i.v.) was 48.5±5.1%, the “HDW (Hemoglobin Distribution Width)” value ([2]; 10mg/kg one-time i.v.) was 2.71 ± 0.10 g/dL and the “HGB (Hemoglobin)” value ([2]; 10mg/kg one-time i.v.) was 13.6 ± 0.5 g/dL. The “MCH (Mean Corpuscular Hemoglobin)” value ([2]; 10mg/kg one-time i.v.) was 13.6 ± 1.8 pg, the “MCHC (Mean corpuscular hemoglobin concentration)” value ([2]; 10mg/kg one-time i.v.) was 28.4 ± 3.8 g/dL and the “MCV (Mean Corpuscular Volume)” value ([2]; 10mg/kg one-time i.v.) was 47.8 ± 1.1 fL. The “MPV (Mean platelet volume)” value ([2]; 10mg/kg one-time i.v.) was 8.4 ± 0.2 fL, the “PCT (Plateletocrit)” value ([2]; 10mg/kg one-time i.v.) was 1.63±0.60% and the “PDW (Platelet distribution width)” value ([2]; 10mg/kg one-time i.v.) was 49.9±2.3%. The “PLT (Platelet)” value ([2]; 10mg/kg one-time i.v.) was 1936±670 ×103cells/μL, the “RBC (Red Blood Cell)” value ([2]; 10mg/kg one-time i.v.) was 10.13±1.05 ×106cells/μL and the “RDW (red blood cell volume distribution width)” value ([2]; 10mg/kg one-time i.v.) was 17.0±0.6%. For the same compound, the “WBC (White Blood Cell)” value ([2]; 10mg/kg one-time i.v.) was 4.38±0.95 ×103cells/μL.
